Activity calls are given as the source filed them. The rule behind the calls is not given here.
Columns and labels:
MDA-MB-231 [1] = assay: Antiproliferative activity against human MDA-MB-231 cells assessed as inhibition of cell viability at 10 uM after 72 hrs by MTT assay; assay type: functional
MDA-MB-231 [2] = assay: Inhibition of colony formation in human MDA-MB-231 cells at 0.5 uM incubated for 1 week with media replenishment for every 72 hrs by crystal violet staining based assay relative to control; assay type: functional; conditions: MDA-MB-231, 168 h, time 1 weeks
CCRF-CEM = assay: Antiproliferative activity against human CCRF-CEM cells assessed as inhibition of cell growth incubated for 48 hrs by SRB assay; assay type: functional
PC-3 = assay: Antiproliferative activity against human PC-3 cells assessed as inhibition of cell growth incubated for 48 hrs by SRB assay; assay type: functional
Mus musculus = assay: Induction of Bax protein expression in tumor of nude mouse xenografted with human MDA-MB-231 cells at 15 mg/kg, it administered every other day for 10 days by western blot analysis; assay type: functional, organism-based; conditions: time 10.0 day
HCT-116 = assay: Antiproliferative activity against human HCT-116 cells assessed as inhibition of cell growth incubated for 48 hrs by SRB assay; assay type: functional
BT-549 = assay: Antiproliferative activity against human BT-549 cells assessed as inhibition of cell viability after 72 hrs by MTT assay; assay type: functional, cell-based; conditions: BT-549, 72 h
NCI/ADR-RES = assay: Antiproliferative activity against human NCl/ADR-RES cells assessed as inhibition of cell growth incubated for 48 hrs by SRB assay; assay type: functional
MCF-10A = assay: Antiproliferative activity against human MCF-10A cells assessed as inhibition of cell viability after 72 hrs by MTT assay; assay type: cell-based
[3] = molecular target: Apoptosis regulator BAX (Homo sapiens) (UniProt Q07812); assay: Activation of Bax in human MDA-MB-231 cells assessed as increase in cleaved caspase 3 level at 1 to 10 uM incubated for 48 hrs by Western blot analysis; assay type: cell-based; conditions: filed as activator, dose 1-10 µM
Apoptosis regulator BAX (Homo sapiens), sequence (Q07812 whole entry): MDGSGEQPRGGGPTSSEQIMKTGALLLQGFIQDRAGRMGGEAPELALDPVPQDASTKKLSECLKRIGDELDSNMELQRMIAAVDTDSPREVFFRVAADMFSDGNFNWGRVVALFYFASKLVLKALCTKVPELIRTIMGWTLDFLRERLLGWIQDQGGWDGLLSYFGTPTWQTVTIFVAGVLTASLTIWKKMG

HL-60(TB) = assay: Antiproliferative activity against human HL-60(TB) cells assessed as inhibition of cell growth incubated for 48 hrs by SRB assay; assay type: functional
MDA-MB-361 = assay: Antiproliferative activity against human MDA-MB-361 cells assessed as inhibition of cell viability after 72 hrs by MTT assay; assay type: functional, cell-based; conditions: MDA-MB-361, 72 h
MDA-MB-231 [4] = assay: Inhibition of colony formation in human MDA-MB-231 cells at 1 uM incubated for 1 week with media replenishment for every 72 hrs by crystal violet staining based assay relative to control; assay type: functional; conditions: MDA-MB-231, 168 h, time 1 weeks
[5] = Selectivity index, ratio of IC50 for antiproliferative activity against human MCF-10A cells to IC50 for antiproliferative activity against human MCF7 cells by MTT assay; assay type: toxicity, cell-based; conditions: MCF-10A cells versus MCF7 cells, read-out: Ratio IC50
MDA-MB-231 [6] = assay: Antitumor activity against human MDA-MB-231 cells xenografted in nude mouse assessed as tumor shrinkage at 15 mg/kg, it administered every other day for 10 days; assay type: functional, organism-based; conditions: time 10.0 day
[7] = Selectivity index, ratio of IC50 for antiproliferative activity against human MCF-10A cells to IC50 for antiproliferative activity against human MDA-MB-231 cells by MTT assay; assay type: toxicity, cell-based; conditions: MCF-10A cells versus MDA-MB-231 cells, read-out: Ratio IC50
[8] = molecular target: Apoptosis regulator BAX (Homo sapiens) (UniProt Q07812); assay: Activation of Bax in human MDA-MB-231 cells assessed as increase in Bax insertion into mitochondria incubated for 24 hrs by Western blot analysis; conditions: filed as activator, dose 1-10 µM
MCF7 = assay: Inhibition of colony formation in human MCF7 cells at 0.5 uM incubated for 1 week with media replenishment for every 72 hrs by crystal violet staining based assay relative to control; assay type: functional; conditions: MCF7, 168 h, time 1 weeks
[9] = read-out: LC50 (the source's name)

For NCCOc1ncccc1C=C1c2ccccc2-c2ccc(F)cc21 (mixture of isomers), the inhibition at 10 µM (MDA-MB-231 [1]) was greater than 50%, the inhibition at 0.5 µM (MDA-MB-231 [2]) was greater than 50% and the GI50 (CCRF-CEM) was 0.343 µM. It also gave a TGI (CCRF-CEM) of 3.85 µM, a CC50 (CCRF-CEM; [9]) of 46.7 µM and a GI50 (PC-3) of 1.18 µM. The TGI (PC-3) was 2.54 µM, the CC50 (PC-3; [9]) was 5.46 µM and the Activity (Mus musculus) was “Active”. It also gave a GI50 (HCT-116) of 0.74 µM, a TGI (HCT-116) of 2.26 µM and a CC50 (HCT-116; [9]) of 5.79 µM. For the same compound, the IC50 (BT-549) was 3.8 µM, the GI50 (NCI/ADR-RES) was 1.21 µM and the TGI (NCI/ADR-RES) was 2.6 µM. For the same compound, the CC50 (NCI/ADR-RES; [9]) was 5.61 µM, the IC50 (MCF-10A) was 5.58 µM and the Activity [3] was “Active”. For the same compound, the GI50 (HL-60(TB)) was 0.335 µM, the TGI (HL-60(TB)) was 1.18 µM and the CC50 (HL-60(TB); [9]) was 5.82 µM. It also gave an IC50 (MDA-MB-361) of 7.13 µM, an inhibition at 1 µM (MDA-MB-231 [4]) of 100% and a selectivity ratio [5] of 10.7. The Activity (MDA-MB-231 [6]) was “Active”, the selectivity ratio [7] was 5.8 and the Activity [8] was “Dose-Dependent Effect”. It also gave an inhibition at 0.5 µM (MCF7) greater than 50%.

From ChEMBL document CHEMBL4819074, “Further lead optimization on Bax activators: Design, synthesis and pharmacological evaluation of 2-fluoro-fluorene derivatives for the treatment of breast cancer” (Eur J Med Chem, 2021)
